In patent publication US6274330A, “L-AP4 sensitive glutamate receptors” (ZymoGenetics, Inc., priority 1993, dated 2001):
Entries after “also recorded” stand apart in the source; their conditions may differ. One block for each compound: values may come before it.

Tests used:
mGluR7 [1] = molecular target: T1, mGluR7 (Rattus norvegicus, UniProt P35400); assay: Inhibition of forskolin-stimulated cAMP production in BHK cells transfected with mGluR7; format: cell-based; conditions: for antagonism of the inhibition of cAMP produced by L-AP4: antagonist 1 mM; for inhibition of forskolin-stimulated cAMP production: forskolin 10 μM, 10 minutes, IBMX 1 mM; for decrease in cAMP: agonist 100 μM; for agonist potency at mGluR7 compared with that previously observed for mGluR4 or mGluR6: cAMP inhibition, no full concentration-response analysis
T1 construct: RNA-injected Xenopus oocytes
T1 sequence (P35400 35-915): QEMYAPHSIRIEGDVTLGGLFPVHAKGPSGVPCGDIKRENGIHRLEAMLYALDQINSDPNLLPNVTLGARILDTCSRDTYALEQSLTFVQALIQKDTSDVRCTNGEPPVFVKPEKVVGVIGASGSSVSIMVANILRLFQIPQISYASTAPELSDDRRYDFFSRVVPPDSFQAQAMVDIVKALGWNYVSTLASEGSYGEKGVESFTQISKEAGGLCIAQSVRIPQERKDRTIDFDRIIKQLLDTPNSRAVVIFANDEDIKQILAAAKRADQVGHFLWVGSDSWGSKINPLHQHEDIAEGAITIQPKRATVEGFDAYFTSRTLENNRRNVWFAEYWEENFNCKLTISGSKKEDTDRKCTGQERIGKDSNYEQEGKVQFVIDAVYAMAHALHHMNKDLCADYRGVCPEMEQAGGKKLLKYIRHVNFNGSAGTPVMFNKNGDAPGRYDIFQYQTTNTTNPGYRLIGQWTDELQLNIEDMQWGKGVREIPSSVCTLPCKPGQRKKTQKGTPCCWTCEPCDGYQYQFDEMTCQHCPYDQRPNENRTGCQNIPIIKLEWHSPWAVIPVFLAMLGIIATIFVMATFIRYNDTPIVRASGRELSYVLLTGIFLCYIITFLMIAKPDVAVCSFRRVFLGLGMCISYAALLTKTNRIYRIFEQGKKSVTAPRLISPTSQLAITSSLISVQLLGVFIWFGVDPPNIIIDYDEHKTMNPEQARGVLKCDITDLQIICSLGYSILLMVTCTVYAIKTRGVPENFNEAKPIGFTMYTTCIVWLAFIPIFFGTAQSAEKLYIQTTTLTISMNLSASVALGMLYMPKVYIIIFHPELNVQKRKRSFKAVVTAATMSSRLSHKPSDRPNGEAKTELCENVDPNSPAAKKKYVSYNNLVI
Protocol: FIG. 2 depicts the inhibition of forskolin-stimulated cAMP production by mGluR7 in baby hamster kidney cells. BHK cells transfected with mGluR7 were preincubated for 20 minutes in IBMX (1 mM), then incubated for 10 minutes with forskolin (10 μM) in the presence or absence of agonists or antagonists.
BHK cells were transfected with mGluR7 subcloned into pZEM229R. Plasmid pZEM229R is a pUC18-based expression vector containing an EcoRI cloning site between a mouse metallothionein-I promoter and an SV40 transcription terminator. The vector also contains an expression unit of the SV40 early promoter, mouse dihydrofolate reductase gene, and SV40 terminator. The two expression units are in opposite orientations with their respective promoters adjacent to each other. E. coli HB101 transformed with pZEM229R was deposited with American Type Culture Collection, 12301 Parklawn Drive, Rockville, MD on Sep. 28, 1993.
(§1) The cells were grown in 10% fetal calf serum and Dulbecco's minimal essential media (DMEM), and transfected clones were selected by methotrexate resistance. Resistant clones were assayed for the presence of mGluR7 RNA and protein. Confluent cells were assayed for cAMP production (Amersham) in the presence of IBMX (1 mM) isobutylmethylxanthine; cAMP levels were measured after 10 minute treatment with forskolin (10 μM) in the presence or absence of mGluR agonists or antagonists. Assays were performed in triplicate three times and the average value from these experiments expressed as the mean cAMP levels plus and minus the standard deviation. The basal cAMP production was subtracted from the stimulated levels and the inhibition was plotted as a percent of the forskolin-stimulated control.

mGluR4 = assay: Forskolin-stimulated cAMP assay in a BHK clone expressing mGluR4; format: cell-based; conditions: L-AP4 1 mM
wild-type BHK cells = assay: cAMP levels in wild-type BHK cells; format: cell-based, hamster
Protocol: as §1

mGluR7 [2] = molecular target: T1, mGluR7; assay: Calcium-activated chloride current in Xenopus oocytes injected with mGluR7 mRNA (two-electrode voltage clamp); format: cell-based
Protocol: (§2) For oocyte expression studies, xenopus laevis (Xenopus I, Ann Arbor) were anesthetized with tricaine and oocytes harvested using sterile technique. RNA transcripts from mGluR1 and mGluR7 were injected into Stage V-VI oocytes (1-100 ng RNA/oocyte) and the oocytes were assayed for production of a calcium-activated chloride current using a two-electrode voltage clamp. Harvesting of oocytes, solutions and recording methods were as described by Lester and colleagues (Dascal et al., Brain Res. 387: 201-209 [1986], which is incorporated herein by reference).

mGluR1 = assay: Calcium-activated chloride current in Xenopus oocytes injected with mGluR1 mRNA (two-electrode voltage clamp); format: cell-based; conditions: sister oocytes injected with mGluR1 mRNA
Protocol: as §2

[3] = agonist 1 mM, BHK cells expressing mGluR7

antagonism of the inhibition of cAMP produced by L-AP4 (mGluR7 [1]; BHK cells expressing mGluR7): did not antagonize
SMILES: CC(N)(C(=O)O)c1ccc(C(=O)O)cc1 (racemic) [MCPG, RS-α-methyl-4-carboxyphenylglycine]

SMILES: N[C@@]1(C(=O)O)CC[C@@H](C(=O)O)C1 [ACPD, (1S,3R)-1-aminocyclopentane-1,3-dicarboxylic acid]
inhibition of forskolin-stimulated cAMP production (mGluR7 [1]; [3]): less efficient; also recorded: much less effective

SMILES: N[C@@H](CP(=O)(O)O)C(=O)O [L-AP3, 2-amino-3-phosphonopropionic acid]
antagonism of the inhibition of cAMP produced by L-AP4 (mGluR7 [1]; BHK cells expressing mGluR7): did not antagonize
antagonism of mGluR7-mediated cAMP inhibition (mGluR7 [1]; antagonist 3 mM, BHK cells expressing mGluR7): did not antagonize

SMILES: N[C@@H](CCP(=O)(O)O)C(=O)O [L-AP4, L-2-amino-4-phosphonobutryic acid]
decrease in cAMP (mGluR7 [1]; BHK cells expressing mGluR7): small decreases in cAMP which were not statistically significant
inhibition of forskolin-stimulated cAMP production (mGluR7 [1]; [3]): largest inhibition; also recorded: inhibited
agonist potency at mGluR7 compared with that previously observed for mGluR4 or mGluR6 (mGluR7 [1]): much less potent agonists
inhibition (cAMP) in BHK clone expressing mGluR4 (mGluR4): 45%
effect on basal cAMP levels (wild-type BHK cells): no significant effect
effect on forskolin-stimulated cAMP levels (wild-type BHK cells): no significant effect

SMILES: N[C@@H](CCC(=O)O)C(=O)O [glutamate]
decrease in cAMP (mGluR7 [1]; BHK cells expressing mGluR7): small decreases in cAMP which were not statistically significant
inhibition of forskolin-stimulated cAMP production (mGluR7 [1]; [3]): less efficient; also recorded: inhibited
agonist potency at mGluR7 compared with that previously observed for mGluR4 or mGluR6 (mGluR7 [1]): much less potent agonists
glutamate response (calcium-activated chloride current) (mGluR7 [2]): no glutamate responses
glutamate response (calcium-activated chloride current) (mGluR1): large calcium-activated chloride currents

SMILES: N[C@@H](Cn1oc(=O)[nH]c1=O)C(=O)O [quisqualate]
inhibition of forskolin-stimulated cAMP production (mGluR7 [1]; agonist 0.5 mM, BHK cells expressing mGluR7): less efficient; also recorded: much less effective
